Experimental data as given in patent publication US20240279710A1, “FLUORESCENT PROBES” (TOHOKU TECHNO ARCH CO., LTD., priority 2021, published 2024).

Legend:
[1] = molecular target: T1, calpain-1 from human erythrocytes (Homo sapiens, UniProt P07384); assay: Reactivity with calpain-1: absorption/fluorescence spectra and HPLC; assay type: biochemical; conditions: 5 μM probe, calpain-1 100 units
T1 construct: calpain-1 from human erythrocytes; purchased Merck Millipore 208713; host or cells: human erythrocytes (natural source)
T1 sequence (P07384 1-714): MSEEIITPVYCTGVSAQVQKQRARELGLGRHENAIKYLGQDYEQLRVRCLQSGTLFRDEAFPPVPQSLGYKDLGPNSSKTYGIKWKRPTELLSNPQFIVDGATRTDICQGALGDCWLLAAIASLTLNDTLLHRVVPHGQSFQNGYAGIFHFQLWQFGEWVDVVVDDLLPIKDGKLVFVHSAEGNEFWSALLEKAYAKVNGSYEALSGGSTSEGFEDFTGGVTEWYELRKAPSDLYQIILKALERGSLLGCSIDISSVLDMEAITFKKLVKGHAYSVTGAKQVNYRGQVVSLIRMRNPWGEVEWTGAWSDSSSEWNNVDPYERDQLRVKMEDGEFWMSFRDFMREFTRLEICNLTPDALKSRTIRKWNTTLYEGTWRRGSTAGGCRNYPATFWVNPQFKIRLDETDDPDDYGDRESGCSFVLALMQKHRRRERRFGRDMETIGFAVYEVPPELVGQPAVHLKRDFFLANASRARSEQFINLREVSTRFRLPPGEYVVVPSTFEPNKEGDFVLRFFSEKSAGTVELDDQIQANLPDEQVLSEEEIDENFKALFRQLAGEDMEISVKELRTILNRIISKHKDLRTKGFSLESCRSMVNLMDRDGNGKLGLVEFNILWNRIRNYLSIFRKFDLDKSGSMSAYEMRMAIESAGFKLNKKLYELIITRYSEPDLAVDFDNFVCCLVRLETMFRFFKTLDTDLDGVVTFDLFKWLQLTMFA
T1 sequence (P04632 1-268 partner): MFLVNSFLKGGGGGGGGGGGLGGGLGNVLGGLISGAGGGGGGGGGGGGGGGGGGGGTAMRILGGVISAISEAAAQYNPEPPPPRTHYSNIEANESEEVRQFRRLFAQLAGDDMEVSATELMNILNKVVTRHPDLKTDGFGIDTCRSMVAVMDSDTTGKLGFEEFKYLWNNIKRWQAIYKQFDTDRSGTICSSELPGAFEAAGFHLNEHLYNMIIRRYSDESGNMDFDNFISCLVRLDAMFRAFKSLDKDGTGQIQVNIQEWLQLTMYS
Protocol: Calpain-1 was caused to act on Compound 19, and changes in absorption spectrum and fluorescence spectrum thereof were measured. Specifically, a solution (0.5 mM) of Compound 19 in DMSO and calpain-1 (100 units) (calpain-1 from human erythrocytes, Cat. No. 208713, Merck Millipore, the same holds true for the following) were added to a 50 mM TRIS buffer (pH: 7.4, 5 mM CaCl2, 100 mM NaCl, 1 mM EGTA) to produce 2 mL of a reaction solution (final probe concentration: 5 μM). An enzyme reaction was performed at 37° C. The fluorescence spectrum of the reaction solution was measured at an excitation wavelength of 490 nm. In addition, the reaction solution was analyzed by HPLC chromatography. Compound 19 to which calpain-1 was not added (final concentration: 5 μM) was used as a control.

retinal ganglion cells = assay: Glutamic acid injury of retinal ganglion cells isolated from iPS cell-derived retinal tissue; assay type: cell-based, human; conditions: glutamic acid 300 μM, probe 5 μM added 1 hour later, imaged 1 hour thereafter; FIG. 24
Protocol: A glutamic acid injury model that activated a calpain to induce a retinal ganglion cell injury was produced from the iPS cell-derived three-dimensional stereoscopic retinal tissue, and calpain activity with Compound 19 was evaluated by using the model. First, to identify a retinal ganglion cell injury caused by a glutamic acid injury, retinal ganglion cells were isolated from the iPS cell-derived three-dimensional stereoscopic retinal tissue with auto MACS pro (trademark) and CD90 MicroBeads. Glutamic acid (final concentration: 300 μM) was added to the cells to be caused to react therewith for 1 hour. Compound 19 (final concentration: 5 μM) was added thereto 1 hour after the addition of glutamic acid, and images of the state and fluorescence of the cells were taken (RGB and B/W modes) with a fluorescence microscope (ZEISS Axio Vert.A1) 1 hour thereafter.

[2] = system: iPS cell-derived three-dimensional stereoscopic retinal tissue; assay: Glutamic acid injury model of iPS cell-derived three-dimensional stereoscopic retinal tissue; assay type: cell-based, human
Protocol: Next, to confirm a reaction under conditions closer to those of a living organism, the iPS cell-derived three-dimensional stereoscopic retinal tissue on the 60th day of the differentiation induction was left at rest in a 24-well plate containing 1 mL of a reaction medium (obtained by adding CaCl2 (final concentration: 2.4 mM) and HEPES (final concentration: 20 mM) to a HBSS solution) in each well (n=5). The tissue was washed with 1 mL of the reaction medium twice, and glutamic acid was added thereto so that its final concentration became 0 μM, 300 μM, or 1 mM, followed by a reaction for 1 hour. Compound 19 was added to the resultant 1 hour after the addition of glutamic acid so that its final concentration became 0 μM, 0.25 μM, 1.2 μM, or 5.0 μM, and an image of the fluorescence of the mixture was taken with a fluorescence microscope (ZEISS Axio Vert.A1) (a RGB mode (lower stage) and a B/W mode (upper stage)) 1 hour thereafter. In all image-taking operations, an exposure time was fixed to 200 ms. The results of groups in which the final concentrations of glutamic acid are 0 μM, 300 μM, and 1 mM are shown in FIG. 25, FIG. 26, and FIG. 27, respectively. […] In addition, a graphical representation of an average calculated from fluorescence intensities in the images taken in the B/W mode (n=3) is shown in FIG. 28. […] In addition, results obtained by comparing and examining the fluorescence intensities of Compound 19 and Compound 16 are shown in FIG. 29.

calpain = assay: Rabbit NMDA injury model, ocular fundus imaging; assay type: in vivo; conditions: for staining of nerve cells with HMRG in ocular fundus: 30, 45 and 60 minutes after probe into the eye (Compound 19 18.3 μM 19 μL; Compound 16 20 μM 19 μl or 38 μl)
Protocol: Black Dutch rabbits were each subjected to general anesthesia with a mixed liquid of ketamine and xylazine. N-Methyl-D-aspartate (NMDA) (12 mM, 50 μL) or PBS was administered into an eye of the rabbit. 9 Hours after that, the rabbit was anesthetized with a mixed liquid of ketamine and xylazine again, and Compound 19 (18.3 μM, 19 μL), Compound 16 (20 μM, 19 μl), or Compound 16 (20 μM, 38 μl) was administered into the eye. Images of an ocular fundus were taken with Mirante (a confocal scanning diode laser ophthalmoscope manufactured by Nidek Co., Ltd.) before the administration of each of the compounds and after the lapse of a predetermined time from the administration.

[3] = rabbits administered NMDA, Compound 19 18.3 μM 19 μL, FIG. 23

COCC(=O)N[C@@H](CC(C)C)C(=O)N[C@@H](CCSC)C(=O)Nc1ccc2c(c1)Oc1cc(N)ccc1C21OCc2ccccc21 (stereo partly drawn) [Compound 19]
changes in absorption spectrum and fluorescence spectrum by addition of calpain-1 ([1]; 50 mM TRIS pH 7.4, 5 mM CaCl2, 37° C., excitation 490 nm): increases in absorbance and fluorescence intensity
change in HPLC chromatogram by addition of calpain-1 (reaction product) ([1]; 37° C.): produced HMRG serving as a fluorescent substance
fluorescence of isolated retinal ganglion cells (retinal ganglion cells): enhancement of the fluorescence
fluorescence images of retinal tissue ([2]; glutamic acid 300 μM or 1 mM, probe 0, 0.25, 1.2 or 5.0 μM, 1 hour, FIG. 26, FIG. 27): enhancement of fluorescence expression was observed in proportion to the concentration of Compound 19
fluorescence intensity compared with Compound 16 ([2]; glutamic acid 1 mM, probe 0.25 μM, 1.2 μM, or 5.0 μM, FIG. 29): stronger fluorescence than that of Compound 16
average fluorescence intensity of retinal tissue (B/W mode) ([2]; same glutamic acid concentration (0 μM, 300 μM, 1 mM), probe 0 to 5.0 μM, FIG. 28): fluorescence was strongly observed in a manner dependent on the concentration of Compound 19
number of HMRG-positive cells in PBS rabbits compared to NMDA rabbits (calpain; Compound 19 (19 μL) and Compound 16 (38 μl), FIG. 23): significantly reduced
reactivity in relation to dose, compared with Compound 16 (calpain; rabbit NMDA injury model, administration into the eye): satisfactory reactivity even when used in a dose smaller than that of Compound 16
staining of nerve cells with HMRG in ocular fundus (calpain; rabbits administered NMDA (12 mM, 50 μL)): many nerve cells were clearly stained with HMRG
number of HMRG-positive cells compared to Compound 16 (19 μl) (calpain; [3]): significantly increased
number of HMRG-positive cells compared to Compound 16 (38 μl) (calpain; [3]): tended to increase
staining of nerve cells with HMRG in ocular fundus (calpain; rabbits administered PBS): substantially no staining of the nerve cells with HMRG
